Results as given in article PMC8981555 (RSC Advances, 2022).
Where two headings read alike, the source gives them in different places.

Assays:
jack bean urease [1] = target: T1, jack bean urease (Canavalia ensiformis, UniProt P07374); assay: Enzyme kinetic studies; type: biochemical; settings: for Mode of inhibition: Lineweaver–Burk plots
jack bean urease [2] = target: T1, jack bean urease; assay: Urease inhibition assay; type: biochemical; settings: for % inhibition: value in parentheses after IC50, concentration not given
[3] = at 20 μM concentration of the inhibitor

T1 sequence (P07374 whole entry, looked up): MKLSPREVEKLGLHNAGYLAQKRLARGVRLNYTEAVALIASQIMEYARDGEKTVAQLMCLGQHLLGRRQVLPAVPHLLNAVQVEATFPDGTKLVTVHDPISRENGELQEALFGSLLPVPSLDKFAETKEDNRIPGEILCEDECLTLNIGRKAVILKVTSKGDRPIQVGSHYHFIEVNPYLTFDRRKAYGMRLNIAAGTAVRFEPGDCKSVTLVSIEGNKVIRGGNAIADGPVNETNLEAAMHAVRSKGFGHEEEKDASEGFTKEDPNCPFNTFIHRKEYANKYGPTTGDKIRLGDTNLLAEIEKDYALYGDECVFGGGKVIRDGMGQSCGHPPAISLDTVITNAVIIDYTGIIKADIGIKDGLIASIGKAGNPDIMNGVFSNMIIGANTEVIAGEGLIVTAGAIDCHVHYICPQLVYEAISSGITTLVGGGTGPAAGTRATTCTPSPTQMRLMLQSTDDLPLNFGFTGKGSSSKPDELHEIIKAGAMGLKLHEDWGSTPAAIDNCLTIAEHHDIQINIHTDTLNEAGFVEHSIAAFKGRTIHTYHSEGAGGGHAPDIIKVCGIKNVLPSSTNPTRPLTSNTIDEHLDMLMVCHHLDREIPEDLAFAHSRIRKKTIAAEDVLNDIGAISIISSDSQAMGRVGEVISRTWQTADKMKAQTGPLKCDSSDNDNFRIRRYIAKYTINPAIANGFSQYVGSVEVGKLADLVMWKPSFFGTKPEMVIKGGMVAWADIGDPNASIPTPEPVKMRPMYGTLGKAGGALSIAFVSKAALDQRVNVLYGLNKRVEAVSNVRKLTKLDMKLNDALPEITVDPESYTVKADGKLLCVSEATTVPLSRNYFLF

In the case of CCCCCCCC(=O)NC(=S)Nc1c(C)cccc1C [Compound 3g, N-(2′,6′-Dimethylphenylcarbamothioyl) octanamide], the Ki (jack bean urease [1]) is reported as 9.28 µM, the Mode of inhibition (jack bean urease [1]) is reported as “Competitive” and the “K m(app)” value (jack bean urease [1]; [3]) is reported as 6.09 mM. The “V max(app)” value (jack bean urease [1]; [3]) was 15.63 µM/min, the IC50 (jack bean urease [2]) was 15.2 ± 0.58 µM and the “% inhibition” value (jack bean urease [2]) was 96.3%.

In the case of CCCCCCCC(=O)NC(=S)Nc1ccccc1Sc1ccccc1 [Compound 3j, N-(2′-(Phenylthio)phenylcarbamothioyl) octanamide], the IC50 (jack bean urease [2]) is reported as 39.1 ± 0.72 µM and the “% inhibition” value (jack bean urease [2]) is reported as 86.5%.

With CCCCCCCC(=O)NC(=S)Nc1ccc(C)c(C)c1 [Compound 3f, N-(3′,4′-Dimethylphenylcarbamothioyl) octanamide] the IC50 (jack bean urease [2]) was 40.2 ± 0.45 µM and the “% inhibition” value (jack bean urease [2]) was 76.2%.

With CCCCCCCC(=O)NC(=S)Nc1ccc(C(F)(F)F)cc1 [Compound 3m, N-(4′-(Trifluoromethyl)phenylcarbamothioyl) octanamide] the IC50 (jack bean urease [2]) was 31.16 ± 0.25 µM and the “% inhibition” value (jack bean urease [2]) was 95.9%.

NC(N)=S [Thiourea, reference compound] was tested, and the Mode of inhibition (jack bean urease [1]) was “Competitive”, the “K m(app)” value (jack bean urease [1]; [3]) was 2.18 mM and the Ki (jack bean urease [1]; derived from Lineweaver–Burk and Dixon plots) was 18.2 µM. The “% inhibition” value (jack bean urease [2]) was 92.1%.

In the case of CCCCCCCC(=O)NC(=S)Nc1cccc(C)c1C [Compound 3k, N-(2′,3′-Dimethylphenylcarbamothioyl) octanamide], the IC50 (jack bean urease [2]) is reported as 46.2 ± 0.78 µM and the “% inhibition” value (jack bean urease [2]) is reported as 85.8%.

For CCCCCCCC(=O)NC(=S)Nc1cc(C)ccc1C [Compound 3d, N-(2′,5′-Dimethylphenylcarbamothioyl) octanamide], the IC50 (jack bean urease [2]) was 60.1 ± 0.78 µM and the “% inhibition” value (jack bean urease [2]) was 61.3%.

In the case of CCCCCCCC(=O)NC(=S)Nc1c(Cl)cccc1Cl [Compound 3i, N-(2′,6′-Dichlorophenylcarbamothioyl) octanamide], the IC50 (jack bean urease [2]) is reported as 22 ± 0.45 µM and the “% inhibition” value (jack bean urease [2]) is reported as 91.4%.

For CCCCCCCC(=O)NC(=S)Nc1cc([N+](=O)[O-])ccc1OC [Compound 3h, N-(2′-Methoxy-5′-nitrophenylcarbamothioyl) octanamide], the IC50 (jack bean urease [2]) was 30.6 ± 0.75 µM and the “% inhibition” value (jack bean urease [2]) was 88.1%.

In the case of CCCCCCCCCCCC(=O)NC(=S)Nc1ccc(Cl)c(Cl)c1 [Compound 3p, N-(3′,4′-Dichlorophenylcarbamothioyl) dodecanamide], the IC50 (jack bean urease [2]) is reported as 20.2 ± 0.48 µM and the “% inhibition” value (jack bean urease [2]) is reported as 85.2%.
